Paper PMC9782819, “Ramosin: The First Antibacterial Peptide Identified on Bolitoglossa ramosi Colombian Salamander” (Pharmaceutics, 2022)
Where no end group is shown, it is not given here.

Experiments:
[1] = test system: Escherichia coli ATCC 25,922; assay type: cell-based; details: ATCC 25, 18 h
Procedure: (§1) To determine the minimum inhibitory concentrations (MICs) of the candidate peptides, the 96-well plate microdilution assay, described by the Clinical and Laboratory Standards Institute (CLSI) and the European Committee on Antimicrobial Susceptibility Testing (EUCAST), was performed. For testing the antimicrobial activity of the candidate peptides, Gram-positive and Gram-negative bacterial strains were used. […] For this assay, 3 to 5 colonies were taken from the agar and grown to exponential phase in tryptic soy broth (TSB) liquid medium defined as a 0.5 McFarland value measured with a densichek plus (Biomérieux). […] The plates were incubated for 18 h at 37 °C, and subsequently the absorbance was read in a MultiSkan GO (Thermofisher, Waltham, MA, USA) at 600 nm. […] To determine if the effect of the peptides was bactericidal or bacteriostatic, once the absorbance reading was completed, 10 μL were taken from each well where bacterial growth inhibition was observed and they were sown in TSA agars and incubated at 37 °C for 24 h. […]
(§2) All bacterial strains used were ATCC reference strains. The antibacterial activity of Ramosin was evaluated using the Wiegand et al. protocol. […]
(§3) In addition to absorbance measurement, a bacterial growth test was performed. […]

[2] = test system: Pseudomonas aeruginosa ATCC 27,853; experiment: Growth inhibition kinetics (bactericidal or bacteriostatic); assay type: cell-based; details: 19 h, peptide 70 μM
Procedure: (§4) To determine the minimum inhibitory concentrations (MICs) of the candidate peptides, the 96-well plate microdilution assay, described by the Clinical and Laboratory Standards Institute (CLSI) and the European Committee on Antimicrobial Susceptibility Testing (EUCAST), was performed. For testing the antimicrobial activity of the candidate peptides, Gram-positive and Gram-negative bacterial strains were used. The strains used were Staphylococcus aureus ATCC 29,213 (S. aureus), Enterococcus faecalis ATCC 29,212 (E. faecalis), Bacillus cereus ATCC 6464 (B. cereus), and Micrococcus luteus ATCC 9341 (M. luteus) as Gram-positive, and Escherichia coli ATCC 25,922 (E. coli), Pseudomonas aeruginosa ATCC 27,853 (P. aeruginosa), and Salmonella typhimurium ATCC 14,028 (S. typhimurium) as Gram-negative. The bacteria were cultivated in tryptic soy agar (TSA) until the time of carrying out the antimicrobial activity assay. For this assay, 3 to 5 colonies were taken from the agar and grown to exponential phase in tryptic soy broth (TSB) liquid medium defined as a 0.5 McFarland value measured with a densichek plus (Biomérieux). Bacteria were diluted to a final concentration of 5 × 10^5 CFU/mL. […] The plates were incubated for 18 h at 37 °C, and subsequently the absorbance was read in a MultiSkan GO (Thermofisher, Waltham, MA, USA) at 600 nm. […] To determine if the effect of the peptides was bactericidal or bacteriostatic, once the absorbance reading was completed, 10 μL were taken from each well where bacterial growth inhibition was observed and they were sown in TSA agars and incubated at 37 °C for 24 h. […]
(§5) All bacterial strains used were ATCC reference strains. The antibacterial activity of Ramosin was evaluated using the Wiegand et al. protocol. […] Two types of tests were carried out: the endpoint, in which the absorbance of the plates was read after 19 h of treatment, and kinetics, in which plate readings were made every hour to determine whether the effect of the peptides was bactericidal or bacteriostatic.
as §3

[3] = test system: Escherichia coli ATCC 25,922; experiment: as above; assay type: cell-based; details: 19 h, peptide 70 μM
Procedure: as §4, §5, §3

[4] = test system: Bacillus cereus ATCC 6464; experiment: as above; assay type: cell-based; details: 19 h, peptide 70 μM
Procedure: as §4, §5, §3

[5] = test system: Staphylococcus aureus ATCC 29,213; experiment: as above; assay type: cell-based; details: 19 h, peptide 70 μM
Procedure: as §1, §2, §3

[6] = test system: Staphylococcus aureus ATCC 29,213; experiment: Broth microdilution endpoint assay / MIC; assay type: cell-based; details: 19 h treatment, absorbance 600 nm, p > 0.005
Procedure: as §1, §2, §3

Procedure for human red blood cells: The hemolytic activity of the peptide was determined as previously reported [45]. In brief, its hemolytic activity of the peptide was evaluated by determining the amount of the released hemoglobin from a 4% v/v suspension of fresh human red blood cells (RBCs). In 96-well plates, 65 μL of the RBCs suspension and 65 μL of each peptide dilution were mixed. […] Plates were incubated at 37 °C for two hours, then centrifuged at 2500× g for 5 min. A total of 80 μL of supernatant was recovered and transferred to another 96-well plate, and absorbance at 540 nm was measured in a MultiSkan GO (Thermofisher, Waltham, MA, USA). The percentage of hemolysis was calculated according to the following formula [45]: (1) %Hemolysis=OD450 in the peptide suspension−OD450 negative control in PBS/OD450 of positive control−OD450 negative control in PBS×100

Substance: GWFSLVRKVVGGVGSL-NH2 [Ramosin]
- MIC for E. coli [1]: 17.5 µM
- non-hemolytic concentration relative to MIC (human red blood cells): up to four times its MIC

Substance: Buforin II
- effect on P. aeruginosa at 70 μM [2]: bactericidal effect
- effect on E. coli at 70 μM [3]: bactericidal effect
- effect on B. cereus at 70 μM [4]: failed to inhibit the growth
- effect on S. aureus at 70 μM [5]: failed to inhibit the growth
- effect on viability of S. aureus, endpoint assay (peptide control) [6]: did not have a statistically significant effect
